pIC50: −log10 of the molar value.
Legend:
[1] = target: T1, ABL1 (64-515) (Homo sapiens (Human), UniProt P00519); experiment: Caliper ABL1 (64-515) assay (microfluidic mobility shift); assay type: biochemical
[2] = target: T1, ABL1 (64-515); experiment: Radio ABL1 (64-515) assay (radiometric filter-binding); assay type: biochemical

T1 sequence (P00519 64-515): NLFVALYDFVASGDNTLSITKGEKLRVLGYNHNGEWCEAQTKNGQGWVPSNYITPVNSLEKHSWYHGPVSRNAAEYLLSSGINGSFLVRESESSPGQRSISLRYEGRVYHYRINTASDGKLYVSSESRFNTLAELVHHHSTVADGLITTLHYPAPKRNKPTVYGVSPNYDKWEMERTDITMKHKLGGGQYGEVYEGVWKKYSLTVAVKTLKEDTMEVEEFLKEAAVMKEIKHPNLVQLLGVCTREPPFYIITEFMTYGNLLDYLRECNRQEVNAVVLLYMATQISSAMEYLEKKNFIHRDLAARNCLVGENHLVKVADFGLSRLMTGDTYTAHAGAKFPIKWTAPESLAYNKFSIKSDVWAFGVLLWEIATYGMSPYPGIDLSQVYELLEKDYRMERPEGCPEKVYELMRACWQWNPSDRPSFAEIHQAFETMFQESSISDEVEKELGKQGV

SMILES	pIC50 [1]	pIC50 [2]
Cc1ncc(-c2cc(C(=O)Nc3ccc(OC(F)(F)F)cc3)cnc2N2CC(C)(O)C2)cc1F [Example 133, 5′-Fluoro-2-(3-hydroxy-3-methylazetidin-1-yl)-6′-methyl-N-(4-(trifluoromethoxy)phenyl)-[3,3′-bipyridine]-5-carboxamide]	8.85	> 8.52
O=C(Nc1ccc(OC(F)(F)F)cc1)c1cnc(N2CC(CO)C2)c(-c2cncnc2)c1 [Example 135, 6-(3-(Hydroxymethyl)azetidin-1-yl)-5-(pyrimidin-5-yl)-N-(4-(trifluoromethoxy)phenyl)nicotinamide]	8.70	> 8.52
O=C(Nc1ccc(OC(F)(F)F)cc1)c1cnc(N2CC(CO)C2)c(-c2cccnc2)c1 [Example 137, 2-(3-(Hydroxymethyl)azetidin-1-yl)-N-(4-(trifluoromethoxy)phenyl)-[3,3′-bipyridine]-5-carboxamide]	9.22	8.22
Cc1ccc(-c2cc(C(=O)Nc3ccc(OC(F)(F)F)cc3)cnc2N2CC(CO)C2)cn1 [Example 138, 2-(3-(Hydroxymethyl)azetidin-1-yl)-6′-methyl-N-(4-(trifluoromethoxy)phenyl)-[3,3′-bipyridine]-5-carboxamide]	9.10	8.15
O=C(Nc1ccc(OC(F)(F)F)cc1)c1cnc(N2CC(CO)C2)c(-c2cncc(F)c2)c1 [Example 139, 5′-Fluoro-2-(3-(hydroxymethyl)azetidin-1-yl)-N-(4-(trifluoromethoxy)phenyl)-[3,3′-bipyridine]-5-carboxamide]	9.22	8.30
Cc1ncc(-c2cc(C(=O)Nc3ccc(OC(F)(F)F)cc3)cnc2N2CC(CO)C2)cc1F [Example 140, 5′-Fluoro-2-(3-(hydroxymethyl)azetidin-1-yl)-6′-methyl-N-(4-(trifluoromethoxy)phenyl)-[3,3′-bipyridine]-5-carboxamide]	9.40	8.40
CC(C)(O)C1CN(c2ncc(C(=O)Nc3ccc(OC(F)(F)F)cc3)cc2-c2cccnc2)C1 [Example 143, 2-(3-(2-Hydroxypropan-2-yl)azetidin-1-yl)-N-(4-(trifluoromethoxy)phenyl)-[3,3′-bipyridine]-5-carboxamide]	8.96	8.40
O=C(Nc1ccc(OC(F)(F)F)cc1)c1cnc(N2CCOCC2)c(-c2cncnc2)c1 [Example 148, 6-Morpholino-5-(pyrimidin-5-yl)-N-(4-(trifluoromethoxy)phenyl)nicotinamide]	8.60	8.52
O=C(Nc1ccc(OC(F)(F)F)cc1)c1cnc(N2CCOCC2)c(-c2ccc(CO)nc2)c1 [Example 149, 6′-(Hydroxymethyl)-2-morpholino-N-(4-(trifluoromethoxy)phenyl)-[3,3′-bipyridine]-5-carboxamide]	8.59	8.52
O=C(Nc1ccc(OC(F)(F)F)cc1)c1cnc(N2C3COCC2COC3)c(-c2cncnc2)c1 [Example 150, 6-(3,7-Dioxa-9-azabicyclo[3.3.1]nonan-9-yl)-5-(pyrimidin-5-yl)-N-(4-(trifluoromethoxy)phenyl)nicotinamide]	8.19	8.40
CN(CCO)c1ncc(C(=O)Nc2ccc(OC(F)(F)F)cc2)cc1-c1cncnc1 [Example 151, 6-((2-Hydroxyethyl)(methyl)amino)-5-(pyrimidin-5-yl)-N-(4-(trifluoromethoxy)phenyl)nicotinamide]	> 9.89	> 8.52
CN(CCO)c1ncc(C(=O)Nc2ccc(OC(F)(F)F)cc2)cc1-c1cncc(F)c1 [Example 154, 5′-Fluoro-2-((2-hydroxyethyl)(methyl)amino)-N-(4-(trifluoromethoxy)phenyl)-[3,3′-bipyridine]-5-carboxamide]	9.00	> 8.52
CN(CCO)c1ncc(C(=O)Nc2ccc(OC(F)(F)F)cc2)cc1-c1cncc(C#N)c1 [Example 155, 5′-Cyano-2-((2-hydroxyethyl)(methyl)amino)-N-(4-(trifluoromethoxy)phenyl)-[3,3′-bipyridine]-5-carboxamide]	8.30	7.96
CCN(CCO)c1ncc(C(=O)Nc2ccc(OC(F)(F)F)cc2)cc1-c1cncnc1 [Example 156, 6-(Ethyl(2-hydroxyethyl)amino)-5-(pyrimidin-5-yl)-N-(4-(trifluoromethoxy)phenyl)nicotinamide]	8.77	8.30
CCN(CCO)c1ncc(C(=O)Nc2ccc(OC(F)(F)F)cc2)cc1-c1cncc(F)c1 [Example 157, 2-(Ethyl(2-hydroxyethyl)amino)-5′-fluoro-N-(4-(trifluoromethoxy)phenyl)-[3,3′-bipyridine]-5-carboxamide]	8.70	> 8.52
CCN(CCO)c1ncc(C(=O)Nc2ccc(OC(F)(F)F)cc2)cc1-c1cncc(C#N)c1 [Example 158, 5′-Cyano-2-(ethyl(2-hydroxyethyl)amino)-N-(4-(trifluoromethoxy)phenyl)-[3,3′-bipyridine]-5-carboxamide]	8.55	7.43

SMILES	pIC50 [1]	pIC50 [2]
O=C(Nc1ccc(OC(F)(F)Cl)cc1)c1cnc(N2CC[C@@H](O)C2)c(-c2cccnc2F)c1 [Example 172, (R)—N-(4-(Chlorodifluoromethoxy)phenyl)-2′-fluoro-2-(3-hydroxypyrrolidin-1-yl)-[3,3′-bipyridine]-5-carboxamide]	9.52	> 8.52
O=C(Nc1ccc(OC(F)(F)Cl)cc1)c1cnc(N2CC[C@H](CO)C2)c(-c2cncnc2)c1 [Example 174, (S)—N-(4-(Chlorodifluoromethoxy)phenyl)-6-(3-(hydroxymethyl)pyrrolidin-1-yl)-5-(pyrimidin-5-yl)nicotinamide]	9.05	8.52
NC[C@@H]1CCN(c2ncc(C(=O)Nc3ccc(OC(F)(F)Cl)cc3)cc2-c2cncnc2)C1 [Example 177, (S)-6-(3-(Aminomethyl)pyrrolidin-1-yl)-N-(4-(chlorodifluoromethoxy)phenyl)-5-(pyrimidin-5-yl)nicotinamide]	9.52	9.00
CC(=O)NC[C@H]1CCN(c2ncc(C(=O)Nc3ccc(OC(F)(F)Cl)cc3)cc2-c2cncnc2)C1 [Example 178, (R)-6-(3-(Acetamidomethyl)pyrrolidin-1-yl)-N-(4-(chlorodifluoromethoxy)phenyl)-5-(pyrimidin-5-yl)nicotinamide]	9.40	7.89
CN(CCO)c1ncc(C(=O)Nc2ccc(OC(F)(F)Cl)cc2)cc1-c1cncnc1 [Example 179, N-(4-(Chlorodifluoromethoxy)phenyl)-6-((2-hydroxyethyl)(methyl)amino)-5-(pyrimidin-5-yl)nicotinamide]	9.10	8.70
CN(CCO)c1ncc(C(=O)Nc2ccc(OC(F)(F)Cl)cc2)cc1-c1cncc(F)c1 [Example 180, N-(4-(Chlorodifluoromethoxy)phenyl)-5′-fluoro-2-((2-hydroxyethyl)(methyl)amino)-[3,3′-bipyridine]-5-carboxamide]	9.40	9.00
CCN(CCO)c1ncc(C(=O)Nc2ccc(OC(F)(F)Cl)cc2)cc1-c1cncnc1 [Example 182, N-(4-(Chlorodifluoromethoxy)phenyl)-6-(ethyl(2-hydroxyethyl)amino)-5-(pyrimidin-5-yl)nicotinamide]	9.22	8.40
CCN(CCO)c1ncc(C(=O)Nc2ccc(OC(F)(F)Cl)cc2)cc1-c1cncc(F)c1 [Example 183, N-(4-(Chlorodifluoromethoxy)phenyl)-2-(ethyl(2-hydroxyethyl)amino)-5′-fluoro-[3,3′-bipyridine]-5-carboxamide]	9.30	8.70
CCN(CCO)c1ncc(C(=O)Nc2ccc(OC(F)(F)Cl)cc2)cc1-c1cncc(C#N)c1 [Example 184, N-(4-(Chlorodifluoromethoxy)phenyl)-5′-cyano-2-(ethyl(2-hydroxyethyl)amino)-[3,3′-bipyridine]-5-carboxamide]	9.10	8.22
N#Cc1cncc(-c2cc(C(=O)Nc3ccc(SC(F)(F)F)cc3)cnc2N2CC[C@@H](O)C2)c1 [Example 188, (R)-5′-Cyano-2-(3-hydroxypyrrolidin-1-yl)-N-(4-((trifluoromethyl)thio)phenyl)-[3,3′-bipyridine]-5-carboxamide]	9.70	8.40
O=C(Nc1ccc(SC(F)(F)F)cc1)c1cnc(N2CC[C@H](CO)C2)c(-c2cncnc2)c1 [Example 189, (S)-6-(3-(Hydroxymethyl)pyrrolidin-1-yl)-5-(pyrimidin-5-yl)-N-(4-((trifluoromethyl)thio)phenyl)nicotinamide]	9.00	8.52
O=C(Nc1ccc(SC(F)(F)F)cc1)c1cnc(N2CC[C@H](CO)C2)c(-c2cncc(F)c2)c1 [Example 190, (S)-5′-Fluoro-2-(3-(hydroxymethyl)pyrrolidin-1-yl)-N-(4-((trifluoromethyl)thio)phenyl)-[3,3′-bipyridine]-5-carboxamide]	9.30	8.23
N#Cc1cncc(-c2cc(C(=O)Nc3ccc(SC(F)(F)F)cc3)cnc2N2CC[C@H](CO)C2)c1 [Example 191, (S)-5′-Cyano-2-(3-(hydroxymethyl)pyrrolidin-1-yl)-N-(4-((trifluoromethyl)thio)phenyl)-[3,3′-bipyridine]-5-carboxamide]	9.05	8.10
CN(CCO)c1ncc(C(=O)Nc2ccc(SC(F)(F)F)cc2)cc1-c1cncnc1 [Example 192, 6-((2-Hydroxyethyl)(methyl)amino)-5-(pyrimidin-5-yl)-N-(4-((trifluoromethyl)thio)phenyl)nicotinamide]	8.89	8.70
CN(CCO)c1ncc(C(=O)Nc2ccc(SC(F)(F)F)cc2)cc1-c1cncc(F)c1 [Example 193, 5′-Fluoro-2-((2-hydroxyethyl)(methyl)amino)-N-(4-((trifluoromethyl)thio)phenyl)-[3,3′-bipyridine]-5-carboxamide]	9.40	8.64
CN(CCO)c1ncc(C(=O)Nc2ccc(SC(F)(F)F)cc2)cc1-c1cncc(C#N)c1 [Example 194, 5′-Cyano-2-((2-hydroxyethyl)(methyl)amino)-N-(4-((trifluoromethyl)thio)phenyl)-[3,3′-bipyridine]-5-carboxamide]	8.85	8.30
